Several values for one entry are separate records, joined by “and”; a condition that tells them apart may be missing. Equal entries are not always repeated.
Columns and labels:
ZAC^H82A/H120F = biological target: T1, ZAC^H82A/H120F (Homo sapiens, UniProt Q401N2, A152T/H106A/H144F); assay: TEVC in oocytes, ZAC H82A/H120F mutant; format: cell-based; conditions: parallel recordings, same oocyte batches
T1 construct: expressed in transfected cells; host or cells: Xenopus oocytes (cRNA injection, pUNIV vector)
Description: (§1) The recordings were performed at room temperature.
(§2) Analysis of the data from the TEVC recordings were performed using Clampfit software version 10.5 (Molecular Devices, Crawley, UK) and GraphPad Prism version 7.0c (GraphPad Software, La Jolla, CA). Unless otherwise stated, the inward currents induced by agonists in oocytes were normalized to the maximal response elicited by a specific agonist (agonist Imax) on each oocyte. Concentration-response and concentration-inhibition curves were fitted in GraphPad Prism by nonlinear regression using the equation for sigmoidal dose-response with variable slope. Each data point represents the mean ± S.E.M. value of recordings performed on at least five oocytes in total from at least two different batches. […] The null hypothesis was rejected at P < 0.05, and the differences between the means were analyzed by Tukey’s multiple comparisons test.
(§3) The putative involvement of candidate residues in Clusters 1, 2, 3 and 4 in Zn^2+ binding to ZAC was investigated in by an elaborate alanine mutagenesis scanning. […] The determined IpH 4.0 value was used in part as a control and in part to enable the distinction of ZAC mutants non-responsive to Zn^2+ due to elimination of their ability to bind the metal ion from those where the mutation had eliminated cell surface expression and/or disrupted overall functionality of the receptor complex. […]

WT ZAC = biological target: T2, WT ZAC (Homo sapiens, UniProt Q401N2, A152T); assay: TEVC in Xenopus oocytes expressing WT ZAC; format: cell-based
T2 construct: expressed in transfected cells; host or cells: Xenopus oocytes injected with cRNA (pUNIV vector)
T2 sequence (Q401N2 26-412 A152T): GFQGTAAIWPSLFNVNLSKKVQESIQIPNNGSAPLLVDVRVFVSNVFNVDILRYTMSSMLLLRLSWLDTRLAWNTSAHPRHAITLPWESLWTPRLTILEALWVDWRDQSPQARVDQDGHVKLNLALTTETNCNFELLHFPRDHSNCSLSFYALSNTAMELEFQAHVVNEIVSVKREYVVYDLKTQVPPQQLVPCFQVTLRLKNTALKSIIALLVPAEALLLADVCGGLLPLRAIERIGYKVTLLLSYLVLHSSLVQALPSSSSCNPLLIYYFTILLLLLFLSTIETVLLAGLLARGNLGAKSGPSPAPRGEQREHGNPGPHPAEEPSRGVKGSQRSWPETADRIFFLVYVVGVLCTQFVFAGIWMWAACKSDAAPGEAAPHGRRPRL
Description: as §1
(§4) Analysis of the data from the TEVC recordings were performed using Clampfit software version 10.5 (Molecular Devices, Crawley, UK) and GraphPad Prism version 7.0c (GraphPad Software, La Jolla, CA). Unless otherwise stated, the inward currents induced by agonists in oocytes were normalized to the maximal response elicited by a specific agonist (agonist Imax) on each oocyte. Concentration-response and concentration-inhibition curves were fitted in GraphPad Prism by nonlinear regression using the equation for sigmoidal dose-response with variable slope. Each data point represents the mean ± S.E.M. value of recordings performed on at least five oocytes in total from at least two different batches. For the data where statistical analysis was performed, a one-way ANOVA was used. The null hypothesis was rejected at P < 0.05, and the differences between the means were analyzed by Tukey’s multiple comparisons test.

ZAC^H210A = biological target: T3, ZAC^H210A (Homo sapiens, UniProt Q401N2, A152T/H144A); assay: TEVC in oocytes, His120 Ala mutant; format: cell-based; conditions: 10 mM Zn^2+
T3 construct: expressed in transfected cells; host or cells: Xenopus oocytes injected with cRNA (pUNIV vector)
Description: as §1, §2, §3

ZAC^H120F = assay: TEVC in oocytes, ZAC H120F mutant; format: cell-based, human; conditions: agonist
Description: as §1, §2, §3

ZAC^H79A/H82A/H120F = biological target: T4, ZAC^H79A/H82A/H120F (Homo sapiens, UniProt Q401N2, A152T/H103A/H106A/H144F); assay: TEVC in oocytes, ZAC H79A/H82A/H120F mutant; format: cell-based; conditions: parallel recordings, same oocyte batches
T4 construct: expressed in transfected cells; host or cells: Xenopus oocytes (cRNA injection, pUNIV vector)
Description: as §1, §2, §3

[1] = test system: ZAC^L9′V, ZAC^L9′I and ZAC^L9′T; assay: TEVC in oocytes, L9′V, L9′I and L9′T mutants (collective statement); format: cell-based, human; conditions: compared to WT ZAC; range over the three mutants
Description: as §1, §4

[2] = agonist, oocytes of the Cluster 3 recordings, n = 12
[3] = agonist, parallel recordings with Cluster 4 mutant, n = 5
[4] = agonist, section 3.1 recordings, n = 8
[5] = sustained (4 min) application of 10 mM Zn^2+

T4 sequence (Q401N2 26-412 H103A/H106A/H144F/A152T): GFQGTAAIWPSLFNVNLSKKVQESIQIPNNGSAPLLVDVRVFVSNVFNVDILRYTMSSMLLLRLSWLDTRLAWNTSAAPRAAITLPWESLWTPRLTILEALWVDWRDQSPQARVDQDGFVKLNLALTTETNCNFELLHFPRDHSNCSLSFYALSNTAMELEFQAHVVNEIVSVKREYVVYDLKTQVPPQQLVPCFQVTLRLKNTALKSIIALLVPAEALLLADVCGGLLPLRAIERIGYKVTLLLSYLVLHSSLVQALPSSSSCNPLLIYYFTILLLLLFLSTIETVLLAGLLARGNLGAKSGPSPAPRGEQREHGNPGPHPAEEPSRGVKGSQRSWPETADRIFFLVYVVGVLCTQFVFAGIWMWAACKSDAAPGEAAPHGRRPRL
T3 sequence (Q401N2 26-412 H144A/A152T): as the sequence (Q401N2 26-412 H103A/H106A/H144F/A152T) above, with A78H, A81H, F119A counted along it
T1 sequence (Q401N2 26-412 H106A/H144F/A152T): as the sequence (Q401N2 26-412 H103A/H106A/H144F/A152T) above, with A78H counted along it

`[Cl-].[Cl-].[Zn+2]` [Zn^2+, ZnCl2] was tested, and the “ability to elicit ZAC signalling compared to WT ZAC” value (ZAC^H82A/H120F) was “did not appear to impair”, the “Imax (current amplitude evoked by saturating agonist)” value (WT ZAC; 10 mM Zn^2+, mean ± S.E.M., n = 19) was 0.58 ± 0.10 μA and the EC50 (WT ZAC; agonist, a couple of oocyte batches with 5–10-fold higher potency (Cluster 1 double/triple mutant experiments)) was roughly 100 µM. For the same compound, the “nH ± S.E.M. (Hill slope)” value (WT ZAC; agonist, n = 8) was 1.5 ± 0.2, the EC50 (WT ZAC; agonist, normal potency in the vast majority of oocyte batches in this work and in two other studies) was 500 to 1000 µM and the EC50 (WT ZAC; [2]) was 98 µM. For the same compound, the “pEC50 ± S.E.M.” value (WT ZAC; [2]) was 4.01 ± 0.03, the EC50 (WT ZAC; [3]) was 310 µM and the “pEC50 ± S.E.M.” value (WT ZAC; [3]) was 3.51 ± 0.05. For the same compound, the EC50 (WT ZAC; [4]) was 500 µM, the “pEC50 ± S.E.M.” value (WT ZAC; [4]) was 3.30 ± 0.04 and the “Iresidual, 4 min” value (WT ZAC; [5]) was 21 % of Ipeak and 21 ± 3 % of Ipeak. For the same compound, the Δtstart-to-peak (WT ZAC; [5]) was 4.8 ± 0.5 s, the “I10 mM Zn2+” value (ZAC^H210A) was 5–30 nA and the “fitted EC50 relative to WT ZAC (higher)” value (ZAC^H120F) was ~ 3 fold. The “ability to elicit ZAC signalling compared to WT ZAC” value (ZAC^H79A/H82A/H120F) was “did not appear to impair” and the “left-shift of Zn^2+ concentration-response relationship” value [1] was 8–30 fold.
